Common to all, as to assay type: biochemical
Experiment [1] has as its target T1, TG2 (transglutaminase-2, transglutaminase type 2) (Homo sapiens, UniProt P21980, K265S).
T1 sequence (P21980 1-687 K265S): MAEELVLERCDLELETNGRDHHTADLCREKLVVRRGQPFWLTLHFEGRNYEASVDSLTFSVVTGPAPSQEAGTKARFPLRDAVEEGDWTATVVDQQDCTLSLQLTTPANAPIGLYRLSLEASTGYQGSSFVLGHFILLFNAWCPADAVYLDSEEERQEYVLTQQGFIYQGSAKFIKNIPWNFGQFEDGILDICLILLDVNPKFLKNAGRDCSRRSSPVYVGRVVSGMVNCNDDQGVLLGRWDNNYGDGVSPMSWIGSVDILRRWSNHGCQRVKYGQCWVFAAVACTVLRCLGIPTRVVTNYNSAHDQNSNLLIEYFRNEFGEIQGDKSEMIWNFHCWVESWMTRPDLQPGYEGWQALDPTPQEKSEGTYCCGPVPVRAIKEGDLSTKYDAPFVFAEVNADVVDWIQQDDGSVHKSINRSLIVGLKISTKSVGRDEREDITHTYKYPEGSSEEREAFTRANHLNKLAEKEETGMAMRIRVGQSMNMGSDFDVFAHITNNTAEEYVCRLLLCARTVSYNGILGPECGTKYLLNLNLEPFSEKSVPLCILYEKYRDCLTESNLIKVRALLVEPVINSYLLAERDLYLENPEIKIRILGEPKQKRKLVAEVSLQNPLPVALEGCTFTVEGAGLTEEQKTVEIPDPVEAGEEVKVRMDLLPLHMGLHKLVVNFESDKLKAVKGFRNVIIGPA

In experiment [2] the target is T2, TG2 (transglutaminase-2, transglutaminase type 2) (Homo sapiens, UniProt P21980, K634S).
T2 sequence (P21980 1-687 K634S): T1 sequence (P21980 1-687 K265S) with S265K, K634S

Experiment [3] has as its target T3, TG2 (transglutaminase-2, transglutaminase type 2) (Homo sapiens, UniProt P21980, K202S/K205S).
T3 sequence (P21980 1-687 K202S/K205S): T1 sequence (P21980 1-687 K265S) with K202S, K205S, S265K

Experiment [4] concerns the target T4, TG2 (transglutaminase-2, transglutaminase type 2) (Homo sapiens, UniProt P21980, R19S).
T4 sequence (P21980 1-687 R19S): T1 sequence (P21980 1-687 K265S) with R19S, S265K

Where a chain is given by its changes, count along the chain named.

By IC50 is commonly meant the midpoint of a concentration-inhibition curve. `Nc1nc2c(ncn2[C@@H]2O[C@H](COP(=O)(O)OP(=O)(O)OP(=O)(O)O)[C@@H](O)[C@H]2O)c(=O)[nH]1` [GTP]: the IC50 in experiment [1] came to 182 ± 17 µM; in experiment [2] it was 199 ± 36 µM; in experiment [3], 145 ± 23 µM; in experiment [4], 254 ± 8 µM.

The values are drawn from paper PMC3365763 (The Journal of Biological Chemistry, 2012).
